{"source": "patent US20230273203A1", "about": "“METHOD FOR DETERMINING FORMULATION OF COMBINATION CONSISTING OF MULTIPLE CANDIDATE SUBSTRATES OF SMELL, TASTE, OR SOMATIC SENSATION AND REPRODUCING SMELL, TASTE, OR SOMATIC SENSATION OF TARGET SUBSTANCE” (Japan Tobacco Inc., priority 2020, published 2023)", "key": {"OR9": {"test_system": "OR9", "test": "Olfactory receptor response measurement, CRE-luciferase reporter in HEK-Olf cells", "type": "cell-based, human", "conditions": "◯ = receptor responds to the fragrance; luminescence after 3 hours"}, "OR3": {"test_system": "OR3", "test": "Olfactory receptor response measurement, CRE-luciferase reporter in HEK-Olf cells", "type": "cell-based, human", "conditions": "◯ = receptor responds to the fragrance; luminescence after 3 hours"}, "OR7": {"test_system": "OR7", "test": "Olfactory receptor response measurement, CRE-luciferase reporter in HEK-Olf cells", "type": "cell-based, human", "conditions": "◯ = receptor responds to the fragrance; luminescence after 3 hours"}, "OR8": {"test_system": "OR8", "test": "Olfactory receptor response measurement, CRE-luciferase reporter in HEK-Olf cells", "type": "cell-based, human", "conditions": "◯ = receptor responds to the fragrance; luminescence after 3 hours"}, "OR10": {"test_system": "OR10", "test": "Olfactory receptor response measurement, CRE-luciferase reporter in HEK-Olf cells", "type": "cell-based, human", "conditions": "◯ = receptor responds to the fragrance; luminescence after 3 hours", "from_the_text": "(§1) An olfactory receptor gene library (pFN21KSPc HaloTag-OR) prepared by inserting 351 human olfactory receptor genes obtained from a human cDNA library into the pFN21KSPc HaloTag vector was purchased from Kazusa Genome Technologies. Of the 351 types, olfactory receptors OR1A1, OR2B11, and the like were polymorphisms known to show low responses to known agonists, such that the olfactory receptors were modified into polymorphisms with high responsiveness for use in the subsequent test (Joel D. Mainland, et al., Nat Neurosci. 2014; 17(1): p. 114-120).\nThe cell line HEK-Olf obtained in Example 1 was prepared in DMEM medium (Thermo Fisher) and then seeded in a 96-well plate (Corning) at 1×10^4 cells/well. Subsequently, pFN21KSPc HaloTag-OR and pGL4.29[luc2P/CRE/Hygro] […]\n(§2) Each olfactory receptor expressing HEK-Olf obtained above was cultured for 24 hours at 37° C. under 5% CO2; then the medium was removed, and test compounds (candidate substances) prepared appropriately in DMEM medium were added in 50 μL aliquots. […] After 3 hours of reaction at 37° C. under 5% CO2, responses of the olfactory receptors were obtained by luminescence measurement using ONE-Glo (trademark) Luciferase Assay kit (Promega).\n(§3) The response intensity R of an olfactory receptor at each concentration was calculated using the luminescence intensity (RLU) obtained in the measurement, based on formula (6) below: […]"}, "OR1": {"test_system": "OR1", "test": "Olfactory receptor response measurement, CRE-luciferase reporter in HEK-Olf cells", "type": "cell-based, human", "conditions": "◯ = receptor responds to the fragrance; luminescence after 3 hours", "from_the_text": "as §1\n(§4) The cell line HEK-Olf obtained in Example 1 was prepared in DMEM medium (Thermo Fisher) and then seeded in a 96-well plate (Corning) at 1×10^4 cells/well. Subsequently, pFN21KSPc HaloTag-OR and pGL4.29[luc2P/CRE/Hygro] Vector (Promega) were introduced into the HEK-Olf with ViaFect (trademark) Transfection Reagent (Promega). At this time, pFN21KSPc HaloTag-OR and pGL4.29[luc2P/CRE/Hygro] Vector were prepared to give 70 ng/well and 30 ng/well, respectively. Using each olfactory receptor expressing HEK-Olf thus constructed, measurement of responses of the olfactory receptors was performed as follows.\n(§5) Each olfactory receptor expressing HEK-Olf obtained above was cultured for 24 hours at 37° C. under 5% CO2; then the medium was removed, and test compounds (candidate substances) prepared appropriately in DMEM medium were added in 50 μL aliquots. DMEM medium containing no test compound was added to negative control wells, and forskolin adjusted to 3 μM was added to positive control wells. After 3 hours of reaction at 37° C. under 5% CO2, responses of the olfactory receptors were obtained by luminescence measurement using ONE-Glo (trademark) Luciferase Assay kit (Promega).\nas §3\n(§6) Furthermore, using the curve fitting software XLFit (IDBS), the maximum response intensity and EC50 of the dose response curve were derived."}, "OR2": {"test_system": "OR2", "test": "Olfactory receptor response measurement, CRE-luciferase reporter in HEK-Olf cells", "type": "cell-based, human", "conditions": "◯ = receptor responds to the fragrance; luminescence after 3 hours", "from_the_text": "as §1, §4, §5, §3, §6"}, "OR4": {"test_system": "OR4", "test": "Olfactory receptor response measurement, CRE-luciferase reporter in HEK-Olf cells", "type": "cell-based, human", "conditions": "◯ = receptor responds to the fragrance; luminescence after 3 hours", "from_the_text": "as §1, §4, §5, §3, §6"}, "OR5": {"test_system": "OR5", "test": "Olfactory receptor response measurement, CRE-luciferase reporter in HEK-Olf cells", "type": "cell-based, human", "conditions": "◯ = receptor responds to the fragrance; luminescence after 3 hours", "from_the_text": "as §1, §4, §5, §3, §6"}, "OR6": {"test_system": "OR6", "test": "Olfactory receptor response measurement, CRE-luciferase reporter in HEK-Olf cells", "type": "cell-based, human", "conditions": "◯ = receptor responds to the fragrance; luminescence after 3 hours", "from_the_text": "as §1, §4, §5, §3, §6"}, "[1]": {"test": "Sensory evaluation of similarity in odor quality to coumarin (VAS)", "type": "in vivo, human", "conditions": "headspace aroma, panel of five trained experts, samples in propylene glycol at Table 2 concentrations; FIG. 4", "method": "In this example, similarity in odor quality between coumarin and the coumarin reconstitution fragrance obtained in Example 3 was verified by sensory evaluation. In the sensory evaluation, the verification was performed by a panel of five trained experts. The similarity in odor was obtained by evaluating the similarity between the headspace aromas of coumarin presented as a reference and each evaluation sample presented blindly, using a Visual Analog Scale (VAS)."}, "[2]": {"test_system": "351 human olfactory receptors", "test": "Response screen of 351 human olfactory receptors", "type": "cell-based", "conditions": "out of 351 human olfactory receptors; all responders class II", "from_the_text": "as §1, with “114-120). […]” for “114-120).”\nas §2, §3\nBased on the above-described procedure, 351 human olfactory receptors were measured for responses to coumarin as a fragrance. […]"}}, "data": [{"smiles": "CCCCC(=O)OCC", "note": "[Ethyl Valerate, ethyl valerate]", "values": [{"measurement": "response of olfactory receptor OR9 to the fragrance", "setting": "OR9", "result": "◯"}]}, {"smiles": "CC(C)[C@@H]1CC[C@@H](C)CC1=O", "note": "[Menthone, menthone]", "values": [{"measurement": "response of olfactory receptor OR3 to the fragrance", "setting": "OR3", "result": "◯"}]}, {"smiles": "C=C(C)[C@@H]1CCC2=CC(=O)C[C@@H](C)[C@]2(C)C1", "note": "[Nootkatone, nootkatone]", "values": [{"measurement": "response of olfactory receptor OR7 to the fragrance", "setting": "OR7", "result": "◯"}, {"measurement": "response of olfactory receptor OR8 to the fragrance", "setting": "OR8", "result": "◯"}, {"measurement": "response of olfactory receptor OR9 to the fragrance", "setting": "OR9", "result": "◯"}, {"measurement": "response of olfactory receptor OR10 to the fragrance", "setting": "OR10", "result": "◯"}]}, {"smiles": "O=Cc1ccc2c(c1)OCO2", "note": "[Piperonal, piperonal]", "values": [{"measurement": "response of olfactory receptor OR1 to the fragrance", "setting": "OR1", "result": "◯"}, {"measurement": "response of olfactory receptor OR2 to the fragrance", "setting": "OR2", "result": "◯"}, {"measurement": "response of olfactory receptor OR4 to the fragrance", "setting": "OR4", "result": "◯"}, {"measurement": "response of olfactory receptor OR5 to the fragrance", "setting": "OR5", "result": "◯"}, {"measurement": "response of olfactory receptor OR6 to the fragrance", "setting": "OR6", "result": "◯"}, {"measurement": "similarity in odor quality to coumarin (VAS)", "setting": "[1]", "result": "low similarity"}]}, {"smiles": "O=c1ccc2ccccc2o1", "note": "[coumarin, reference compound]", "values": [{"measurement": "response of olfactory receptor OR1 to the fragrance", "setting": "OR1", "result": "confirmed to respond"}, {"measurement": "response of olfactory receptor OR2 to the fragrance", "setting": "OR2", "result": "confirmed to respond"}, {"measurement": "response of olfactory receptor OR4 to the fragrance", "setting": "OR4", "result": "confirmed to respond"}, {"measurement": "response of olfactory receptor OR5 to the fragrance", "setting": "OR5", "result": "confirmed to respond"}, {"measurement": "response of olfactory receptor OR6 to the fragrance", "setting": "OR6", "result": "confirmed to respond"}, {"measurement": "response of olfactory receptor OR3 to the fragrance", "setting": "OR3", "result": "confirmed to respond"}, {"measurement": "number of olfactory receptors showing dose-dependent responses", "setting": "[2]", "result": "six"}]}, {"smiles": "O=C(O)C=Cc1ccccc1O", "note": "[o-Hydroxycinnamic Acid, o-hydroxycinnamic acid]", "values": [{"measurement": "response of olfactory receptor OR7 to the fragrance", "setting": "OR7", "result": "◯"}, {"measurement": "response of olfactory receptor OR8 to the fragrance", "setting": "OR8", "result": "◯"}, {"measurement": "response of olfactory receptor OR9 to the fragrance", "setting": "OR9", "result": "◯"}]}, {"smiles": "CCCC1CCC(=O)O1", "note": "(stereo not shown) [γ-Heptalactone, γ-heptalactone]", "values": [{"measurement": "response of olfactory receptor OR1 to the fragrance", "setting": "OR1", "result": "◯"}, {"measurement": "response of olfactory receptor OR5 to the fragrance", "setting": "OR5", "result": "◯"}, {"measurement": "response of olfactory receptor OR3 to the fragrance", "setting": "OR3", "result": "◯"}]}]}
